According to patent US20250002507A1, “7,8-DIHYDRO-5H-1,6-NAPHTHYRIDINE DERIVATIVES AS POSITIVE ALLOSTERIC MODULATORS OF THE MUSCARINIC ACETYLCHOLINE RECEPTOR M4 FOR TREATING NEUROLOGICAL AND PSYCHIATRIC DISORDERS” (Vanderbilt University, priority 2021, published 2025):

Target: T1, Human M4 (Homo sapiens, UniProt P08173)
T1 construct: expressed in transfected cells
T1 sequence (P08173 1-479): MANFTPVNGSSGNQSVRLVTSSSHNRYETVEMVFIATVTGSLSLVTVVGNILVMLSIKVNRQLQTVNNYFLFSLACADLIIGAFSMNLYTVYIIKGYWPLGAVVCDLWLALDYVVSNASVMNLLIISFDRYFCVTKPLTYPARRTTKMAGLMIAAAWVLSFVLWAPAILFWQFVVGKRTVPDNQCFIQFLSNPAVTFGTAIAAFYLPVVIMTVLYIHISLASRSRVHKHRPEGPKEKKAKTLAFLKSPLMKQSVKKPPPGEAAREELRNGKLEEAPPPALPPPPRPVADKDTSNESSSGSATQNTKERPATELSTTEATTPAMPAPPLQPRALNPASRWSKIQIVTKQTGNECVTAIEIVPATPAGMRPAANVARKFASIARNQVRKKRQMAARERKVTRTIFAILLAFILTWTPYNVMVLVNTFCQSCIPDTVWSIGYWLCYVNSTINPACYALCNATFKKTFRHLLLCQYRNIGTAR
Assay: mAChR M4 cell-based functional assay (calcium flux, potentiation of EC20 acetylcholine response), hM4-Gqi5 CHO-K1 cells
Details: for Emax at 30 µM: % ACh maximum at 30 μM, human M4, read-out: Emax; for EC50: hM4-Gqi5 CHO-K1 cells, calcium flux, PAM of EC20 acetylcholine, read-out: Human M4 EC50
Protocol: Human and rat M4 cDNAs, along with the chimeric G protein Gqi5, were transfected into Chinese hamster ovary (CHO-K1) cells purchased from the American Type Culture Collection using Lipofectamine2000. hM4-Gqi5 cells were grown in Ham's F-12 medium containing 10% heat-inactivated fetal bovine serum (FBS), 20 mM HEPES, 50 μg/mL G418 sulfate, and 500 μg/mL Hygromycin B. rM4-Gqi5 cells were grown in DMEM containing 10% heat-inactivated FBS, 20 mM HEPES, 400 μg/mL G418 sulfate, and 500 μg/mL Hygromycin B.
For high throughput measurement of agonist-evoked increases in intracellular calcium, CHO-K1 cells stably expressing muscarinic receptors were plated in growth medium lacking G418 and hygromycin at 15,000 cells/20 μL/well in Greiner 384-well black-walled, tissue culture (TC)-treated, clear-bottom plates (VWR). Cells were incubated overnight at 37° C. and 5% CO2. The next day, cells were washed using an ELX 405 (BioTek) with assay buffer; the final volume was then aspirated to 20 μL. Next, 20 μL of a 2.3 μM stock of Fluo-4/acetoxymethyl ester (Invitrogen, Carlsbad, CA), prepared as a 2.3 mM stock in DMSO and mixed in a 1:1 ratio with 10% (w/v) Pluronic F-127 and diluted in assay buffer, was added to the wells and the cell plates were incubated for 50 min at 37° C. and 5% CO2. Dye was removed by washing with the ELX 405 and the final volume was aspirated to 20 μL. Compound master plates were formatted in an 11 point concentration-response curve (CRC) format (1:3 dilutions) in 100% DMSO with a starting concentration of 10 mM using a BRAVO liquid handler (Agilent). Test compound CRCs were then transferred to daughter plates (240 nL) using the Echo acoustic plate reformatter (Labcyte, Sunnyvale, CA) and then diluted into assay buffer (40 μL) to a 2× stock using a Thermo Fisher Combi (Thermo Fisher Scientific, Waltham, MA).
Calcium flux was measured using the Functional Drug Screening System (FDSS) 6000 or 7000 (Hamamatsu Corporation, Tokyo, Japan) as an increase in the fluorescent static ratio. Compounds were applied to cells (20 μL, 2×) using the automated system of the FDSS at 2-4 seconds into the protocol and the data were collected at 1 Hz. At 144 seconds, 10 μL of an EC20 concentration of the muscarinic receptor agonist acetylcholine was added (5×), followed by the addition of 12 μL of an EC80 concentration of acetylcholine at the 230 second time point (5×). Agonist activity was analyzed as a concentration-dependent increase in calcium mobilization upon compound addition. Positive allosteric modulator activity was analyzed as a concentration-dependent increase in the EC20 acetylcholine response. Antagonist activity was analyzed as a concentration-dependent decrease in the EC80 acetylcholine response. Concentration-response curves were generated using a four-parameter logistical equation in XLFit curve fitting software (IDBS, Bridgewater, NJ) for Excel (Microsoft, Redmond, WA) or Prism (GraphPad Software, Inc., San Diego, CA).
Compounds were synthesized as described above. Activity (EC50 and Emax) was determined in the mAChR M4 cell-based functional assay as described above and the data are shown in Tables 2-4. The compound number corresponds to the compound numbers used in Table 1.

SMILES	Emax at 30 µM (CHO-K1)	EC50	Emax (CHO-K1)
Cc1c(N2CCc3ncc(-c4cnn(Cc5ccccn5)c4)cc3C2)nn2cnnc2c1C [Compound 24, 6-(7,8-dimethyl-[1,2,4]triazolo[4,3-b]pyridazin-6-yl)-3-[1-(2-pyridylmethyl)pyrazol-4-yl]-7,8-dihydro-5H-1,6-naphthyridine]	94%	–	–
Cc1c(N2CCc3ncc(N4CCC5OCCCC5C4)cc3C2)nn2cnnc2c1C (centres unmarked) [Compound 25, 6-[6-(7,8-dimethyl-[1,2,4]triazolo[4,3-b]pyridazin-6-yl)-7,8-dihydro-5H-1,6-naphthyridin-3-yl]-2,3,4,4a,5,7,8,8a-octahydropyrano[3,2-c]pyridine]	65%	348 nM	–
Cc1c(N2CCc3ncc(NCC4CCCO4)cc3C2)nn2cnnc2c1C (centres unmarked) [Compound 26, 6-(7,8-dimethyl-[1,2,4]triazolo[4,3-b]pyridazin-6-yl)-N-(tetrahydrofuran-2-ylmethyl)-7,8-dihydro-5H-1,6-naphthyridin-3-amine]	75%	737 nM	–
COc1ccc(Nc2cnc3c(c2)CN(c2nn4cnnc4c(C)c2C)CC3)c(F)c1F [Compound 27, N-(2,3-difluoro-4-methoxy-phenyl)-6-(7,8-dimethyl-[1,2,4]triazolo[4,3-b]pyridazin-6-yl)-7,8-dihydro-5H-1,6-naphthyridin-3-amine]	77%	597 nM	–
COc1ccc(Nc2cnc3c(c2)CN(c2nn4cnnc4c(C)c2C)CC3)c(F)c1 [Compound 28, 6-(7,8-dimethyl-[1,2,4]triazolo[4,3-b]pyridazin-6-yl)-N-(2-fluoro-4-methoxy-phenyl)-7,8-dihydro-5H-1,6-naphthyridin-3-amine]	93%	231 nM	–
Cc1c(N2CCc3ncc(Nc4c(F)ccc(Cl)c4F)cc3C2)nn2cnnc2c1C [Compound 29, N-(3-chloro-2,6-difluoro-phenyl)-6-(7,8-dimethyl-[1,2,4]triazolo[4,3-b]pyridazin-6-yl)-7,8-dihydro-5H-1,6-naphthyridin-3-amine]	87%	443 nM	–
Cc1c(N2CCc3ncc(Nc4cc(F)cc(F)c4F)cc3C2)nn2cnnc2c1C [Compound 30, 6-(7,8-dimethyl-[1,2,4]triazolo[4,3-b]pyridazin-6-yl)-N-(2,3,5-trifluorophenyl)-7,8-dihydro-5H-1,6-naphthyridin-3-amine]	94%	120 nM	–
COc1cc(F)c(Nc2cnc3c(c2)CN(c2nn4cnnc4c(C)c2C)CC3)c(F)c1 [Compound 31, N-(2,6-difluoro-4-methoxy-phenyl)-6-(7,8-dimethyl-[1,2,4]triazolo[4,3-b]pyridazin-6-yl)-7,8-dihydro-5H-1,6-naphthyridin-3-amine]	88%	455 nM	–
Cc1c(N2CCc3ncc(Nc4cc(F)ccc4F)cc3C2)nn2cnnc2c1C [Compound 32, N-(2,5-difluorophenyl)-6-(7,8-dimethyl-[1,2,4]triazolo[4,3-b]pyridazin-6-yl)-7,8-dihydro-5H-1,6-naphthyridin-3-amine]	102%	84.8 nM	–
Cc1c(N2CCc3ncc(Nc4ccccc4F)cc3C2)nn2cnnc2c1C [Compound 33, 6-(7,8-Dimethyl-[1,2,4]triazolo[4,3-b]pyridazin-6-yl)-N-(2-fluorophenyl)-5,6,7,8-tetrahydro-1,6-naphthyridin-3-amine]	–	161 nM	94%
Cc1c(N2CCc3ncc(Nc4cc(Cl)ccc4F)cc3C2)nn2cnnc2c1C [Compound 34, N-(5-chloro-2-fluoro-phenyl)-6-(7,8-dimethyl-[1,2,4]triazolo[4,3-b]pyridazin-6-yl)-7,8-dihydro-5H-1,6-naphthyridin-3-amine]	93%	562 nM	–
Cc1cc(-c2cnc3c(c2)CN(c2nn4cnnc4c(C)c2C)CC3)cc(Cl)n1 [Compound 35, 3-(2-chloro-6-methyl-4-pyridyl)-6-(7,8-dimethyl-[1,2,4]triazolo[4,3-b]pyridazin-6-yl)-7,8-dihydro-5H-1,6-naphthyridine]	78%	1900 nM	–
